Measured values published in the NIST ThermoML archive (doi:10.1016/j.jct.2013.02.014).
Numbers after ± are expanded uncertainties.

Details: Liquid, Falling or rolling sphere viscometry

Q: With `CCCCn1cc[n+](C)c1C.O=S(=O)([N-]S(=O)(=O)C(F)(F)F)C(F)(F)F` as the molecule, how does the viscosity (313.15 K, 10000 kPa) read?
A: 55.9 ± 5.7 mPa·s

Q: What about the viscosity (313.15 K, 15000 kPa) of the same molecule?
A: 59.5 ± 6.1 mPa·s

Q: What about the viscosity (313.15 K, 25000 kPa) of the same molecule?
A: 67.3 ± 6.9 mPa·s

Q: What about the viscosity (313.15 K, 50000 kPa) of the same molecule?
A: 90.7 ± 9.5 mPa·s

Q: What about the viscosity (313.15 K, 75000 kPa) of the same molecule?
A: 120.9 ± 13 mPa·s

Q: And the viscosity (313.15 K, 100000 kPa)?
A: 159.8 ± 17 mPa·s

Q: And the viscosity (313.15 K, 125000 kPa)?
A: 210.1 ± 24 mPa·s

Q: And the viscosity (313.15 K, 150000 kPa)?
A: 275 ± 32 mPa·s

Q: And the viscosity (343.15 K, 10000 kPa)?
A: 19.5 ± 2.2 mPa·s

Q: What about the viscosity (343.15 K, 15000 kPa) of the same molecule?
A: 20.5 ± 2.3 mPa·s

Q: And the viscosity (343.15 K, 25000 kPa)?
A: 22.7 ± 2.5 mPa·s

Q: And the viscosity (343.15 K, 50000 kPa)?
A: 28.8 ± 3.3 mPa·s

Q: What about the viscosity (343.15 K, 75000 kPa) of the same molecule?
A: 36.3 ± 4.2 mPa·s

Q: What about the viscosity (343.15 K, 100000 kPa) of the same molecule?
A: 45.5 ± 5.4 mPa·s

Q: And the viscosity (343.15 K, 125000 kPa)?
A: 56.9 ± 6.8 mPa·s

Q: What about the viscosity (343.15 K, 150000 kPa) of the same molecule?
A: 70.9 ± 8.7 mPa·s

Q: What about the viscosity (363.15 K, 10000 kPa) of the same molecule?
A: 12.4 ± 1.3 mPa·s

Q: What about the viscosity (363.15 K, 15000 kPa) of the same molecule?
A: 13 ± 1.4 mPa·s

Q: What about the viscosity (363.15 K, 25000 kPa) of the same molecule?
A: 14.3 ± 1.5 mPa·s

Q: And the viscosity (363.15 K, 50000 kPa)?
A: 17.9 ± 1.9 mPa·s

Q: What about the viscosity (363.15 K, 75000 kPa) of the same molecule?
A: 22.1 ± 2.3 mPa·s

Q: And the viscosity (363.15 K, 100000 kPa)?
A: 26.9 ± 2.9 mPa·s

Q: And the viscosity (363.15 K, 125000 kPa)?
A: 32.4 ± 3.5 mPa·s

Q: What about the viscosity (363.15 K, 150000 kPa) of the same molecule?
A: 38.7 ± 4.2 mPa·s
